In patent publication US12503452B2 (Curza Global, LLC, priority 2019, dated 2025):
Counter-ions that a name gives are not always drawn. Like-named read-outs stand apart in the source and are kept apart here.

What was measured:
[1] = target: Rabbit Reticulocyte Lysate (eukaryotic protein synthesis); assay: Rabbit reticulocyte lysate luciferase assay (inhibition of eukaryotic protein synthesis); format: biochemical; details: read-out: Rabbit reticulocyte IC50 (μM/% inhib.)
Summary of the method: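 Compounds were tested in 8-point 2-fold dilution series for blocking luciferase synthesis in nuclease-treated rabbit reticulocyte lysate (30° C., 90 minutes). Luminescence read-out, corrected by no-RNA background, was expressed as % inhibition against water-only reactions.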

E. faecalis (Ef) = assay: Broth microdilution minimum inhibitory concentration (MIC); format: cell-based; details: Enterococcus faecalis, read-out: Ef + bicarb MIC
Summary of the method: (§1)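 Two-fold compound series, 8 points in triplicate; medium CAMHB ± NaHCO3 (6.25 or 25 mM final) or ± 0–50% heat-inactivated human serum; inoculum 5×10^4 CFU/well; growth-method 0.5 McFarland suspensions; modified CLSI M07-A9.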

E. coli (Ec) = assay: as above; format: cell-based; details: Escherichia coli, read-out: E. coli + bicarb MIC
Summary of the method: as §1

S. aureus (Sa) = assay: as above; format: cell-based; details: Staphylococcus aureus, read-out: Sa + bicarb MIC
Summary of the method: as §1

P. aeruginosa (Pa) = assay: as above; format: cell-based; details: Pseudomonas aeruginosa, read-out: Pa MIC + bicarb
Summary of the method: as §1

A. baumannii (Ab) = assay: as above; format: cell-based; details: Acinetobacter baumannii, read-out: Ab + bicarb MIC
Summary of the method: as §1

[2] = tested on: E. coli S30 extract (bacterial protein synthesis); assay: E. coli S30 extract coupled transcription-translation luciferase assay (inhibition of bacterial protein synthesis); format: biochemical; details: read-out: S30 IC50 (μM/% inhib.)
Summary of the method: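 Luminescent read-out of luciferase made from pBESTluc DNA by E. coli S30 extract after 1 h at 37 °C with compound in an 8-point 2-fold series. Background came from no-DNA reactions. Percent inhibition was calculated against water-only controls.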

[3] = class by IC50 or % inhibition @ 1 μM
[4] = E. faecalis, growth medium with sodium bicarbonate
[5] = E. coli, growth medium with sodium bicarbonate
[6] = S. aureus, growth medium with sodium bicarbonate
[7] = P. aeruginosa, growth medium with sodium bicarbonate
[8] = A. baumannii, growth medium with sodium bicarbonate

CNC1CCC(N(Cc2ccc(-n3ccc(NC(=O)N4CCN(C(=O)C(C)(C)N)CC4)nc3=O)cc2)CC2CC2)CC1 (stereo not drawn) [Compound 301, hydrochloride salt]
IC50 [1, 3]: > 1 µM
MIC (E. faecalis (Ef)): < 8 µg/mL
MIC (E. coli (Ec)): < 8 µg/mL
MIC (S. aureus (Sa)): < 8 µg/mL
MIC (P. aeruginosa (Pa)): > 32 µg/mL
MIC (A. baumannii (Ab)): 8 to 32 µg/mL
IC50 [2, 3]: 0.5 to 1 µM

CC(Cc1ccc(-n2ccc(NC(=O)N3CCN(C(=O)C(C)(C)N)CC3)nc2=O)cc1)NCC1CNC1 (stereo not drawn) [Compound 165]
IC50 [1, 3]: > 1 µM
MIC (E. faecalis (Ef); [4]): > 32 µg/mL
MIC (E. coli (Ec); [5]): 8 to 32 µg/mL
MIC (S. aureus (Sa); [6]): > 32 µg/mL
MIC (P. aeruginosa (Pa); [7]): > 32 µg/mL
MIC (A. baumannii (Ab); [8]): > 32 µg/mL
IC50 [2, 3]: > 1 µM

CCN(Cc1ccc(-n2ccc(NC(=O)N3CCN(C(=O)[C@@](C)(N)CO)CC3)nc2=O)cc1)C1CCC(N)CC1 (stereo partly drawn) [Compound 287]
IC50 [1, 3]: > 1 µM
MIC (E. faecalis (Ef); [4]): < 8 µg/mL
MIC (E. coli (Ec); [5]): < 8 µg/mL
MIC (S. aureus (Sa); [6]): < 8 µg/mL
MIC (P. aeruginosa (Pa); [7]): 8 to 32 µg/mL
MIC (A. baumannii (Ab); [8]): > 32 µg/mL
IC50 [2, 3]: < 0.5 µM

Cc1cc(-n2ccc(NC(=O)N3CCN(C(=O)C(C)(C)N)CC3)nc2=O)ccc1CNC1CCC(N)CC1 (stereo not drawn) [Compound 283]
IC50 [1, 3]: > 1 µM
MIC (E. faecalis (Ef); [4]): < 8 µg/mL
MIC (E. coli (Ec); [5]): < 8 µg/mL
MIC (S. aureus (Sa); [6]): < 8 µg/mL
MIC (P. aeruginosa (Pa); [7]): > 32 µg/mL
MIC (A. baumannii (Ab); [8]): > 32 µg/mL
IC50 [2, 3]: < 0.5 µM

CCN(C[C@H]1CCC[C@H](N)C1)C(C)Cc1ccc(-n2ccc(NC(=O)N3CCN(C(=O)C(C)(C)N)CC3)nc2=O)cc1 (stereo partly drawn) [Compound 280]
IC50 [1, 3]: > 1 µM
MIC (E. faecalis (Ef); [4]): < 8 µg/mL
MIC (E. coli (Ec); [5]): < 8 µg/mL
MIC (S. aureus (Sa); [6]): < 8 µg/mL
MIC (P. aeruginosa (Pa); [7]): > 32 µg/mL
MIC (A. baumannii (Ab); [8]): > 32 µg/mL
IC50 [2, 3]: 0.5 to 1 µM

CC(Cc1ccc(-n2ccc(NC(=O)N3CCN(C(=O)C(C)(C)N)CC3)nc2=O)cc1)N1CC(CCN)C1 (stereo not drawn) [Compound 347, hydrochloride salt]
IC50 [1, 3]: > 1 µM
MIC (E. faecalis (Ef)): > 32 µg/mL
MIC (E. coli (Ec)): < 8 µg/mL
MIC (S. aureus (Sa)): 8 to 32 µg/mL
MIC (P. aeruginosa (Pa)): > 32 µg/mL
MIC (A. baumannii (Ab)): > 32 µg/mL
IC50 [2, 3]: 0.5 to 1 µM

CC(C)(N)C(=O)N1CCN(C(=O)Nc2ccn(-c3ccc(CN4CC(N5CC(N)C5)C4)cc3)c(=O)n2)CC1 [Compound 380]
IC50 ([1]; % inhibition @ 1 μM): > 1 µM
MIC (E. faecalis (Ef); [4]): 8 to 32 µg/mL
MIC (E. coli (Ec); [5]): < 8 µg/mL
MIC (S. aureus (Sa); [6]): < 8 µg/mL
MIC (P. aeruginosa (Pa); [7]): > 32 µg/mL
MIC (A. baumannii (Ab); [8]): > 32 µg/mL
IC50 ([2]; % inhibition @ 1 μM): < 0.5 µM

CC(C)(N)C(=O)N1CCN(C(=O)Nc2ccn(-c3ccc(CC4(N5CCC(N)CC5)CC4)cc3)c(=O)n2)CC1 [Compound 373]
IC50 ([1]; % inhibition @ 1 μM): > 1 µM
MIC (E. faecalis (Ef); [4]): 8 to 32 µg/mL
MIC (E. coli (Ec); [5]): < 8 µg/mL
MIC (S. aureus (Sa); [6]): < 8 µg/mL
MIC (P. aeruginosa (Pa); [7]): > 32 µg/mL
MIC (A. baumannii (Ab); [8]): > 32 µg/mL
IC50 ([2]; % inhibition @ 1 μM): > 1 µM

CCN(CC1CNC1)C(C)Cc1ccc(-n2ccc(NC(=O)N3CCN(C(=O)C(C)(C)N)CC3)nc2=O)cc1 (stereo not drawn) [Compound 167]
IC50 [1, 3]: > 1 µM
MIC (E. faecalis (Ef); [4]): 8 to 32 µg/mL
MIC (E. coli (Ec); [5]): < 8 µg/mL
MIC (S. aureus (Sa); [6]): 8 to 32 µg/mL
MIC (P. aeruginosa (Pa); [7]): > 32 µg/mL
MIC (A. baumannii (Ab); [8]): > 32 µg/mL
IC50 [2, 3]: > 1 µM

NC1CCN(Cc2ccc(-n3ccc(NC(=O)N4CC5(CC(N)C5)C4)nc3=O)cc2)CC1 [Compound 289]
IC50 [1, 3]: > 1 µM
MIC (E. faecalis (Ef); [4]): > 32 µg/mL
MIC (E. coli (Ec); [5]): < 8 µg/mL
MIC (S. aureus (Sa); [6]): < 8 µg/mL
MIC (P. aeruginosa (Pa); [7]): > 32 µg/mL
MIC (A. baumannii (Ab); [8]): > 32 µg/mL
IC50 [2, 3]: 0.5 to 1 µM

CC(C)(N)C(=O)N1CCN(C(=O)Nc2ccn(-c3ccc(CN4CCC(C5CNC5)CC4)cc3)c(=O)n2)CC1 [Compound 370, hydrochloride salt]
IC50 ([1]; % inhibition @ 1 μM): > 1 µM
MIC (E. faecalis (Ef)): < 8 µg/mL
MIC (E. coli (Ec)): < 8 µg/mL
MIC (S. aureus (Sa)): < 8 µg/mL
MIC (P. aeruginosa (Pa)): > 32 µg/mL
MIC (A. baumannii (Ab)): > 32 µg/mL
IC50 ([2]; % inhibition @ 1 μM): < 0.5 µM

CC(C)(N)C(=O)N1CCN(C(=O)Nc2ccn(-c3ccc(CCN4CCCC(N)CC4)cc3)c(=O)n2)CC1 (stereo not drawn) [Compound 21]
IC50 [1, 3]: > 1 µM
MIC (E. faecalis (Ef); E. faecalis, growth medium supplemented with sodium bicarbonate): < 8 µg/mL
MIC (E. coli (Ec); E. coli, growth medium supplemented with sodium bicarbonate): < 8 µg/mL
MIC (S. aureus (Sa); S. aureus, growth medium supplemented with sodium bicarbonate): < 8 µg/mL
MIC (P. aeruginosa (Pa); P. aeruginosa, growth medium supplemented with sodium bicarbonate): 8 to 32 µg/mL
MIC (A. baumannii (Ab); A. baumannii, growth medium supplemented with sodium bicarbonate): > 32 µg/mL
IC50 [2, 3]: < 0.5 µM
